Columns and labels:
Conditions in all cases: 72 h
[1] = system: Caco-2; test: cell viability relative to DMSO; higher = less toxic
[2] = system: Calu-3; test: as above
[3] = system: HepG2; test: as above
[4] = system: U2OS; test: as above
[5] = system: Vero E6; test: as above
[6] = system: Caco-2; test: relative viability EC50 (midpoint between 100% and the lowest measured viability); higher = less toxic
[7] = system: Calu-3; test: as above
[8] = system: HepG2; test: as above
[9] = system: U2OS; test: as above
[10] = system: Vero E6; test: as above
[11] = system: Caco-2; test: drug sensitivity score (DSS) for viability; higher = more toxic; extreme values may be limits of the assay
[12] = system: Calu-3; test: as above
[13] = system: HepG2; test: as above
[14] = system: U2OS; test: as above
[15] = system: Vero E6; test: as above

| SMILES | cell viability ([1]; 1 nM) | cell viability ([1]; 10 nM) | cell viability ([1]; 100 nM) | cell viability ([1]; 1000 nM) | cell viability ([1]; 10000 nM) | cell viability ([2]; 1 nM) | cell viability ([2]; 10 nM) | cell viability ([2]; 100 nM) | cell viability ([2]; 1000 nM) | cell viability ([2]; 10000 nM) | cell viability ([3]; 1 nM) | cell viability ([3]; 10 nM) | cell viability ([3]; 100 nM) | cell viability ([3]; 1000 nM) | cell viability ([3]; 10000 nM) | cell viability ([4]; 1 nM) | cell viability ([4]; 10 nM) | cell viability ([4]; 100 nM) | cell viability ([4]; 1000 nM) | cell viability ([4]; 10000 nM) | cell viability ([5]; 1 nM) | cell viability ([5]; 10 nM) | cell viability ([5]; 100 nM) | cell viability ([5]; 1000 nM) | cell viability ([5]; 10000 nM) | relative viability EC50 [6] | relative viability EC50 [7] | relative viability EC50 [8] | relative viability EC50 [9] | relative viability EC50 [10] | drug sensitivity score [11] | drug sensitivity score [12] | drug sensitivity score [13] | drug sensitivity score [14] | drug sensitivity score [15] |
| --- | --- | --- | --- | --- | --- | --- | --- | --- | --- | --- | --- | --- | --- | --- | --- | --- | --- | --- | --- | --- | --- | --- | --- | --- | --- | --- | --- | --- | --- | --- | --- | --- | --- | --- | --- |
| c1cc(-c2sc(-c3ccncc3)c(-c3ccncc3)c2-c2ccncc2)ccn1 [GANT-58] | 105% | 99% | 94.6% | 92.6% | 86.6% | 98.3% | 94.8% | 95.3% | 88.5% | 106% | 90.9% | 102% | 97.8% | 118% | 103% | 102% | 99.2% | 99.8% | 97.8% | 99.2% | 93% | 106% | 91.7% | 96.4% | 111% | > 10 µM | > 10 µM | > 10 µM | > 10 µM | > 10 µM | 0.2 | 0 | 0 | 0 | 0 |
| CC(C)n1nnc2cc(C(=O)O)ccc21 [IBC-293] | 102% | 98% | 101% | 106% | 95.2% | 94.9% | 91% | 100% | 101% | 103% | 93.2% | 105% | 91% | 106% | 102% | 102% | 96% | 98.3% | 97.6% | 98.6% | 96.6% | 98.5% | 102% | 104% | 99.5% | > 10 µM | > 10 µM | > 10 µM | > 10 µM | > 10 µM | 0 | 0 | 0 | 0 | 0 |
| COC(=O)C[C@H]1CC(c2ccc(O)cc2)=NO1 [ISO-1] | 102% | 103% | 96.9% | 93.5% | 109% | 100% | 109% | 104% | 99.5% | 109% | 104% | 102% | 102% | 103% | 94.6% | 95.2% | 98.9% | 96.1% | 106% | 96.8% | 106% | 99.7% | 97.1% | 101% | 98.5% | > 10 µM | > 10 µM | > 10 µM | > 10 µM | > 10 µM | 0 | 0 | 0 | 0 | 0 |
| NC1=NC(=O)N([C@H]2C[C@H](O)[C@@H](CO)O2)CN1 [KP-1212] | 89.9% | 104% | 89% | 103% | 99.8% | 93.3% | 90.5% | 94.3% | 98.9% | 98.8% | 99.1% | 95% | 100% | 98.3% | 93.9% | 92.6% | 102% | 95.5% | 99.7% | 103% | 99.8% | 98.7% | 97.9% | 92.1% | 105% | > 10 µM | > 10 µM | > 10 µM | > 10 µM | > 10 µM | 0 | 0 | 0 | 0 | 0 |
| CC(=O)N[C@@H](Cc1c[nH]c2ccccc12)C(=O)OCc1cc(C(F)(F)F)cc(C(F)(F)F)c1 [L-732,138] | 91.7% | 92.8% | 96.4% | 97.5% | 92.8% | 95.4% | 102% | 92.6% | 103% | 102% | 91.1% | 106% | 105% | 104% | 105% | 96.7% | 94.7% | 97.4% | 94.4% | 99.2% | 89.1% | 97.3% | 86.3% | 95.3% | 109% | > 10 µM | > 10 µM | > 10 µM | > 10 µM | > 10 µM | 0 | 0 | 0 | 0 | 0 |
| CN(C)C(=O)CCSC(SCCC(=O)O)c1cccc(/C=C/c2ccc3ccc(Cl)cc3n2)c1 (stereo not given) [MK-571] | 97.8% | 92.2% | 95% | 92.6% | 95.2% | 101% | 97.5% | 101% | 101% | 104% | 102% | 106% | 97.7% | 108% | 95.7% | 102% | 101% | 97.2% | 94.3% | 101% | 98.4% | 93.5% | 99.6% | 99.1% | 91.5% | > 10 µM | > 10 µM | > 10 µM | > 10 µM | > 10 µM | 0 | 0 | 0 | 0 | 0 |
| C#CCN1C(C)=C(C(=O)OC)C(c2cccc([N+](=O)[O-])c2)C(C(=O)OCC)=C1C (stereo not given) [MRS-1845] | 92% | 98.1% | 96.9% | 88.6% | 85.4% | 99.5% | 91.3% | 95.6% | 98.3% | 90.6% | 95.2% | 105% | 91.3% | 106% | 95.7% | 107% | 97.8% | 105% | 100% | 97.2% | 94.1% | 99.6% | 98% | 99.3% | 99% | > 10 µM | > 10 µM | > 10 µM | > 10 µM | > 10 µM | 0.3 | 0 | 0 | 0 | 0 |
